Test results reported in ChEMBL document CHEMBL1201862, “PubChem BioAssay data set” (2004).
The source made the active and inactive calls.

Columns and labels:
[1] = biological target: FAD-linked sulfhydryl oxidase ALR (Homo sapiens, UniProt P55789); experiment: inhibitors of human ALR sulfhydryl oxidase, dose response, biochemical, H2O2 detection, luminescence, cherry-pick (AID 493248)
[2] = biological target: T1, Short transient receptor potential channel 4 (Mus musculus, UniProt Q9QUQ5); experiment: mouse TRPC4 channel inhibitors, dose response, cell-based, HEK293 TRPC4/mu-opioid, Fluo-4 calcium (AID 434942); type: functional;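 further: potency of inhibitors blocking the TRPC4 calcium response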
T1 sequence (Q9QUQ5 whole entry): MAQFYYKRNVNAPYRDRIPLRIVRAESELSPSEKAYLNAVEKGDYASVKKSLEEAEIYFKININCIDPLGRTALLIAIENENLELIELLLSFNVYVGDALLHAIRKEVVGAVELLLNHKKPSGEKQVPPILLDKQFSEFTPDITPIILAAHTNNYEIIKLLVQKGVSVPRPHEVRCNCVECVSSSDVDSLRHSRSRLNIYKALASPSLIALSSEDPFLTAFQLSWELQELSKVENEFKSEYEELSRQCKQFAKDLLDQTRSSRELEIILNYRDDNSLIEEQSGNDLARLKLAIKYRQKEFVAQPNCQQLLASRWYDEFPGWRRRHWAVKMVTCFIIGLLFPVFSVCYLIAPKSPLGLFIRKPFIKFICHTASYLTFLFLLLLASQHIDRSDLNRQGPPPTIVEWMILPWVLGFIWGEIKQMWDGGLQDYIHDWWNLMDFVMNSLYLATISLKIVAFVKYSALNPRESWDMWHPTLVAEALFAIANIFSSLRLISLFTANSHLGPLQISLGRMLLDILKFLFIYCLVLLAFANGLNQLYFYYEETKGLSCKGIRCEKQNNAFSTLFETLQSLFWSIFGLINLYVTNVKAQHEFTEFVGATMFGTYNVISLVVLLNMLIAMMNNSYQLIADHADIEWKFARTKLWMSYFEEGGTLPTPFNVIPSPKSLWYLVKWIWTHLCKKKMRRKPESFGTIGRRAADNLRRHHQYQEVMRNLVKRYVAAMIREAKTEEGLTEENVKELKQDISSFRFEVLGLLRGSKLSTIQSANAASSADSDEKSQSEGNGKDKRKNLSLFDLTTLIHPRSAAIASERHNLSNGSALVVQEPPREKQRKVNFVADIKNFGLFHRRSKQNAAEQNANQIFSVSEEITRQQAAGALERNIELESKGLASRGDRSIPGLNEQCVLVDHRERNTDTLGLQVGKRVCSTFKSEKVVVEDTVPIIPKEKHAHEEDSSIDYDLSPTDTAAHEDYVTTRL

Aminopeptidase N = biological target: T2, Aminopeptidase N (Plasmodium falciparum FcB1/Columbia, UniProt O96935); experiment: P. falciparum M1AAP inhibitors, biochemical, fluorogenic H-Leu-NHMec substrate, 1536-well (AID 1445); parameters: species or system Plasmodium falciparum 3D7, 3D7
T2 sequence (O96935 whole entry): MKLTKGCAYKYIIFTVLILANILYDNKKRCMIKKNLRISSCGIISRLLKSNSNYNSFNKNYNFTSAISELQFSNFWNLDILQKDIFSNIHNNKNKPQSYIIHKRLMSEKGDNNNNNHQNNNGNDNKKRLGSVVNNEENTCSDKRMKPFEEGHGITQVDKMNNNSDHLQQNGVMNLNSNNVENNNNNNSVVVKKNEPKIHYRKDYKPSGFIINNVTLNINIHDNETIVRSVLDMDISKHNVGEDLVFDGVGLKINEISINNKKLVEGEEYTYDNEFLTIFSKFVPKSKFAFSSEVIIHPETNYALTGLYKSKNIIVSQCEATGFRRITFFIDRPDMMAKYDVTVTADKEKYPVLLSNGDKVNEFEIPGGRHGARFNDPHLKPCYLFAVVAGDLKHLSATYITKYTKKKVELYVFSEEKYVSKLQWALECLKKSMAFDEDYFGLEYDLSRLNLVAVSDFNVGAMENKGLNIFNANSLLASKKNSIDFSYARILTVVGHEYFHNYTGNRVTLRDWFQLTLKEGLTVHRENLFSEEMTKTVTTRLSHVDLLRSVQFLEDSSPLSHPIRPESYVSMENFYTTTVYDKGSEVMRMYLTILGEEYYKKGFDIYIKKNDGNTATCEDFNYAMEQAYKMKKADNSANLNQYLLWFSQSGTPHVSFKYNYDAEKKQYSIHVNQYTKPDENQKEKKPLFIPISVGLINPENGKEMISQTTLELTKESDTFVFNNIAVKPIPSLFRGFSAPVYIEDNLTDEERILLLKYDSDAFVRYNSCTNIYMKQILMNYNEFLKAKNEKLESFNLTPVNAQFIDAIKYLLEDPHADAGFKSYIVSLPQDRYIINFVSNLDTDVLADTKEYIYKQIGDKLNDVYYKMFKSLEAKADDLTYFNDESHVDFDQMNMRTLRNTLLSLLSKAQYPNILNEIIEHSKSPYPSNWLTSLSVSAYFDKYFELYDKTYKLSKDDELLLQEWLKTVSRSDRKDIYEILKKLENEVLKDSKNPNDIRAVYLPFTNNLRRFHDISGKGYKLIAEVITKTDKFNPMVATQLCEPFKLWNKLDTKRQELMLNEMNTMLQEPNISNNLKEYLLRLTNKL

Genome polyprotein = Genome polyprotein (dengue virus type 2, UniProt P29990); experiment: Dengue-2 NS5 methyltransferase inhibitors, primary screen, biochemical, confirmation dose response (AID 588689); type: functional
Sequence of Genome polyprotein (P29990 2492-3391 limits assumed): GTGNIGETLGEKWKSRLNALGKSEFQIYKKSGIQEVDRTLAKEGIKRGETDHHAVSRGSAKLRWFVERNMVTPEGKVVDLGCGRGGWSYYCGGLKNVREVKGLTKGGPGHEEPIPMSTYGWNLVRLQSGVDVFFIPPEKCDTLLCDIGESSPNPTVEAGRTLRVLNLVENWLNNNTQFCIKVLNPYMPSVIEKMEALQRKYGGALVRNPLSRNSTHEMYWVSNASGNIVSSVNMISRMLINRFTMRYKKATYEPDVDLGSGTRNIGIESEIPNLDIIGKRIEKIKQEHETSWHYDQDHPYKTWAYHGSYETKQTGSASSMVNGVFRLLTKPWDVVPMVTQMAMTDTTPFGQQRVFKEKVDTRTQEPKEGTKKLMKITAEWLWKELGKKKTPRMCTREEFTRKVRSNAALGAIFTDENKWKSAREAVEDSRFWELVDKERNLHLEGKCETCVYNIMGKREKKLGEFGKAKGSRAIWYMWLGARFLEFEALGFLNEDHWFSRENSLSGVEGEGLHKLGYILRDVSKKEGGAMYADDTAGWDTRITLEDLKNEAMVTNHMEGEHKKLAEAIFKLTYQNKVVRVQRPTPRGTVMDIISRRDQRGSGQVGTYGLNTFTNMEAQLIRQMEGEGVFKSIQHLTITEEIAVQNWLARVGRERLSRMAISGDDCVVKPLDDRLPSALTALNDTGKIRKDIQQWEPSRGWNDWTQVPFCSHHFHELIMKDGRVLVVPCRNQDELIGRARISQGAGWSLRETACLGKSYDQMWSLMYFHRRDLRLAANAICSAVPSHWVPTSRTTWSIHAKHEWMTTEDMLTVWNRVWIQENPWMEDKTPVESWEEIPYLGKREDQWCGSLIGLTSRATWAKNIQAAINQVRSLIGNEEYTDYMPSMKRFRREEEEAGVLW

[3] = biological target: Induced myeloid leukemia cell differentiation protein Mcl-1 (Homo sapiens, UniProt Q07820); type: functional
Sequence of Induced myeloid leukemia cell differentiation protein Mcl-1 (Q07820 whole entry): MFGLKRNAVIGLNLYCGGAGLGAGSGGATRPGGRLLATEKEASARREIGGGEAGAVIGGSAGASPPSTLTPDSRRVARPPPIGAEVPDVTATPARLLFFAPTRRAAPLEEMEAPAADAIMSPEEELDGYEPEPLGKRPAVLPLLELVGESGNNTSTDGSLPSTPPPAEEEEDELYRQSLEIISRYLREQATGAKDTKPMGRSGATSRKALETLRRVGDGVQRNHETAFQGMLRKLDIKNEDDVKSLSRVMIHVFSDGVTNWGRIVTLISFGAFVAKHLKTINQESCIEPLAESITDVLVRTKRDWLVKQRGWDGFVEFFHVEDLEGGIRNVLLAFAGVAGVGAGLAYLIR

Leucine aminopeptidase = biological target: T3, Leucine aminopeptidase (Plasmodium falciparum 3D7, UniProt Q8IL11); experiment: P. falciparum M17LAP inhibitors, primary screen, biochemical, fluorogenic H-Leu-NHMec substrate, 1536-well (AID 1619); type: functional
T3 sequence (Q8IL11 whole entry): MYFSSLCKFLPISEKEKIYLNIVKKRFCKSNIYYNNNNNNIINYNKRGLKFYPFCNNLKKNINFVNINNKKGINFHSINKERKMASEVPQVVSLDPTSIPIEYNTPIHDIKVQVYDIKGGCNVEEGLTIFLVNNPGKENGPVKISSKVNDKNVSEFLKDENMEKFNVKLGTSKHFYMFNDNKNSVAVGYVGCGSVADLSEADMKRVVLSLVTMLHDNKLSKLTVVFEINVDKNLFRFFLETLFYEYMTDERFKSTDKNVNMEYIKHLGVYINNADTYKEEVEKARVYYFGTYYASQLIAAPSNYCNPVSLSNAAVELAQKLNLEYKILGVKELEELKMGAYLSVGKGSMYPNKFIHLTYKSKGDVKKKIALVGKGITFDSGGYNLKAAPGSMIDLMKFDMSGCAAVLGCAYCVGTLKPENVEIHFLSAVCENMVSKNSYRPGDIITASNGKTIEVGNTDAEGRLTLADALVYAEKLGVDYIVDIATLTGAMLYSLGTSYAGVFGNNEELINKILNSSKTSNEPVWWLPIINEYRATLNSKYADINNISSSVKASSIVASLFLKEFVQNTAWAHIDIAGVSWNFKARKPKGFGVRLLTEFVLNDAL

Nonstructural protein 1 = Nonstructural protein 1 (Influenza A virus, UniProt Q194T2); type: functional, Influenza A virus (A/California/07/2009(H1N1))
Sequence of Nonstructural protein 1 (Q194T2 whole entry): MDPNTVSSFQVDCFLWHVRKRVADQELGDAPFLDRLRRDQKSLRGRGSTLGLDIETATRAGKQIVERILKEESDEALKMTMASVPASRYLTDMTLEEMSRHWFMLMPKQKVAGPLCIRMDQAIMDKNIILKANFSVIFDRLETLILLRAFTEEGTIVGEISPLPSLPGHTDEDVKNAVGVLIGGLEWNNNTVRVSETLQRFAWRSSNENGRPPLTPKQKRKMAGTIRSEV

[4] = biological target: T4, Rac GTPase-activating protein 1 (Homo sapiens, UniProt Q9H0H5); experiment: MgcRacGAP GTPase-activating activity inhibitors, confirmation, biochemical, ADP Hunter fluorescence, primary and confirmatory (AID 624330); type: functional
T4 sequence (Q9H0H5 whole entry): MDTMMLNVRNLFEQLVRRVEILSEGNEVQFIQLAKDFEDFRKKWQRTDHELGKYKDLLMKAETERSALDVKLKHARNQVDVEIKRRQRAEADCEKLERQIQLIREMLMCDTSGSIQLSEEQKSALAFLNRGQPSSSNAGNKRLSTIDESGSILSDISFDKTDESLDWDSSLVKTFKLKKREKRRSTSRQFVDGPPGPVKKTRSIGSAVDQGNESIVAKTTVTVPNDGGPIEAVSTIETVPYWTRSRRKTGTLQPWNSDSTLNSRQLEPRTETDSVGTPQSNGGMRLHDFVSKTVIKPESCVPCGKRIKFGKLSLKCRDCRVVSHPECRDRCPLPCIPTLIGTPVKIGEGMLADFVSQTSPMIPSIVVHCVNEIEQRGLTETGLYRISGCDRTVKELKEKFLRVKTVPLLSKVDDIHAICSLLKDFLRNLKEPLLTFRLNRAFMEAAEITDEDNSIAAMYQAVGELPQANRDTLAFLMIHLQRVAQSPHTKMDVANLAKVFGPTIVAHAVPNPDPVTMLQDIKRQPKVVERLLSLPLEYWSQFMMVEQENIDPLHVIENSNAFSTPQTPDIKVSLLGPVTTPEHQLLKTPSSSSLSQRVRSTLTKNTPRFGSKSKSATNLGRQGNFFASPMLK

[5] = biological target: T5, Corticotropin-releasing factor receptor 2/Corticotropin-releasing factor-binding protein (Homo sapiens, UniProt P24387+Q13324); experiment: Dose Response confirmation of uHTS hits for small molecule antagonists of the CRF-binding protein and CRF-R2 receptor complex.; type: functional; conditions: read-out: IC50_Mean
T5 sequence (Q13324 whole entry): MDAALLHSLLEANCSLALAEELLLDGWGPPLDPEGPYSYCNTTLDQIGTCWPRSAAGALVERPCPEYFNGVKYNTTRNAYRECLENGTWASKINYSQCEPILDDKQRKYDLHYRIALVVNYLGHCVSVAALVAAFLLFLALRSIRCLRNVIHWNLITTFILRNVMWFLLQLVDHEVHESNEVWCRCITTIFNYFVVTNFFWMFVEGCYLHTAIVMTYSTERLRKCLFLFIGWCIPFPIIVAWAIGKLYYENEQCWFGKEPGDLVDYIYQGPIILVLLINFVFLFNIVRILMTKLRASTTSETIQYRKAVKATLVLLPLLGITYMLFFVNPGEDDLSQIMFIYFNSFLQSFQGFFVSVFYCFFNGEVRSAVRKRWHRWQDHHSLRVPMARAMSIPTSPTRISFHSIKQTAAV
T5 sequence (P24387 whole entry): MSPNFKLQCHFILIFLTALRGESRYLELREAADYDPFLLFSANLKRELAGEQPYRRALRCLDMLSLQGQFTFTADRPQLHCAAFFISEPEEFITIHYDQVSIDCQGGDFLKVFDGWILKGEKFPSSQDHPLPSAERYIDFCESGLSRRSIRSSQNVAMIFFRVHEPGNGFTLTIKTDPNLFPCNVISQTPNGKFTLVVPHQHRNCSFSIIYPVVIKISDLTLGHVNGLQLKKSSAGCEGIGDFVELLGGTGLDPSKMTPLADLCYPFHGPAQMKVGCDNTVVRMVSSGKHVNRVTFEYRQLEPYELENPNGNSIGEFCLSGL

[6] = biological target: T5, Corticotropin-releasing factor receptor 2/Corticotropin-releasing factor-binding protein; experiment: activators of CRF receptor 2 with binding protein – uHTS hits, confirmation (AID 602473); type: functional; conditions: read-out: EC50_Mean

Sequence of FAD-linked sulfhydryl oxidase ALR (P55789 whole entry): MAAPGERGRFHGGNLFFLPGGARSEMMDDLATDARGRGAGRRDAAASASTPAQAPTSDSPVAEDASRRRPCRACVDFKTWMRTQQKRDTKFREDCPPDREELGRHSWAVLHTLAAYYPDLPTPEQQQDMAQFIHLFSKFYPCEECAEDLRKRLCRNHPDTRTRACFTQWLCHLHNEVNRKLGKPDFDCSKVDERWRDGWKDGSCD

Structure (SMILES): CC(NC(=O)c1cccc(N(C)C)c1)c1ccc(-n2ccnc2)cc1 (configuration not stated)
- AC50 [1]: 9.59 µM (active)

Structure (SMILES): COc1ccccc1N(C(=O)c1snc(C(N)=O)c1N)C(C(=O)NCc1ccccc1)c1ccc(C)o1 (configuration not stated)
- EC50 [2]: 0.944 µM (active)

Structure (SMILES): COc1ccc(NC(=S)NNc2ccc(S(=O)(=O)Nc3ccccc3C(=O)O)cc2[N+](=O)[O-])cc1
- IC50 (Aminopeptidase N): 4.17 µM (active)
- IC50 (Genome polyprotein): 15.8 µM (active)
- IC50 [3]: 3.37 µM (not active)
- IC50 (Leucine aminopeptidase): 4.33 µM (active)
- IC50 (Nonstructural protein 1): 31.7 µM (active)

Structure (SMILES): COc1ccccc1CNCc1ccc(OC)c2ccccc12
- EC50 [2]: 5.31 µM (active)

Structure (SMILES): CCc1cc(C(=O)c2ccc(OC)cc2)c(NC(=O)CC(C)(C)CC(=O)O)s1
- AC50 [1]: 4.26 µM (active)

Structure (SMILES): CCN(CC)c1ccc(NC(=O)CN2CCN(CC(=O)Nc3ccccc3F)CC2)cc1
- AC50 [1]: 1.18 µM (active)

Structure (SMILES): O=C(Nc1ccc(O)cc1)c1ccc(C(=O)c2ccccc2)o1
- AC50 [1]: 2.25 µM (active)
- IC50 [4]: 19.5 µM (active)

Structure (SMILES): C/C(=N/NS(=O)(=O)c1ccc(Br)cc1)c1ccc(C)o1
- AC50 [1]: 15.4 µM (active)

Structure (SMILES): CC(CN(C)C)CN1c2ccccc2Sc2ccccc21 (configuration not stated)
- AC50 [1]: 1.25 µM (active)

Structure (SMILES): c1ccc2c(c1)nnn2-c1ncnc2sc3c(c12)CCCC3
- EC50 [2]: 6.68 µM (active)
- IC50 [5]: > 47.1 µM (inactive)
- EC50 [6]: > 53 µM (inactive)
